Source: PubChem BioAssay (NCI)
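1) Cells in 96-well plates. 2) Compound, 48 h, 5 concentrations. 3) Linear interpolation between surrounding doses. 4) Unreached endpoint = highest concentration. GI50 is the concentration that inhibits growth by half. The concentration for full growth arrest is given as TGI.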

Legend:
Assay in all cases: NCI anticancer screen, dose series, 48 h
NCI-H460 lung = test system: NCI-H460 lung
786-0 renal = test system: 786-0 renal
UO-31 renal = test system: UO-31 renal
OVCAR-3 ovarian = test system: OVCAR-3 ovarian
MALME-3M melanoma = test system: MALME-3M melanoma
OVCAR-5 ovarian = test system: OVCAR-5 ovarian
SNB-19 CNS = test system: SNB-19 CNS
CCRF-CEM leukemia = test system: CCRF-CEM leukemia
NCI-H226 lung = test system: NCI-H226 lung
OVCAR-8 ovarian = test system: OVCAR-8 ovarian

Row | Structure (SMILES) | GI50 (NCI-H460 lung) [µM] | TGI (NCI-H460 lung) [µM] | GI50 (786-0 renal) [µM] | TGI (786-0 renal) [µM] | GI50 (UO-31 renal) [µM] | TGI (UO-31 renal) [µM] | GI50 (OVCAR-3 ovarian) [µM] | TGI (OVCAR-3 ovarian) [µM] | GI50 (MALME-3M melanoma) [µM] | TGI (MALME-3M melanoma) [µM] | GI50 (OVCAR-5 ovarian) [µM] | TGI (OVCAR-5 ovarian) [µM] | GI50 (SNB-19 CNS) [µM] | TGI (SNB-19 CNS) [µM] | GI50 (CCRF-CEM leukemia) [µM] | TGI (CCRF-CEM leukemia) [µM] | GI50 (NCI-H226 lung) [µM] | TGI (NCI-H226 lung) [µM] | GI50 (OVCAR-8 ovarian) [µM] | TGI (OVCAR-8 ovarian) [µM]
1 | O=S(=O)(NCCNc1nccc(-c2c(-c3ccc(F)cc3)nc3sccn23)n1)c1ccccc1 | 2.72 | > 100 | 4.77 | > 100 | 1.83 | 39.8 | 11.3 | 76 | 5.82 | 51.1 | 81.1 | > 100 | 9.88 | > 100 | 3.5 | > 100 | 7.73 | > 100 | 4.17 | > 100
2 | COc1ccc(OC)c(Nc2nc(-c3c(C)nc4sccn34)cs2)c1 | > 100 | > 100 | 32.3 | > 100 | 29 | > 100 | 92.7 | > 100 | > 100 | > 100 | > 100 | > 100 | 41.4 | > 100 | > 100 | > 100 | 19.2 | > 100 | 7.22 | > 100
3 | CO[C@H]1CC(c2ccc[nH]2)=N[C@]12O[C@@H](C)C[C@@H]1CCCCCCCc3ccc([nH]3)[C@H]12 | 0.813 | 6.07 | 1.25 | 6.53 | 0.932 | 4.2 | 0.942 | 5.62 | 0.886 | 3.62 | 1.25 | 6.22 | 3.41 | > 33.3 | 0.704 | > 30.4 | 0.929 | 5.25 | 1.17 | > 33.3
4 | COc1cc(/C=C/C(=O)c2cccnc2Nc2ccc(F)cc2)cc(OC)c1OC | 2.83 | 10.1 | 3.9 | 13 | 5.62 | 48 | 2.63 | 6.61 | 6.9 | 48.9 | 4.1 | 17.8 | 3.73 | 33.2 | 2.45 | 9.87 | 1.79 | 3.78 | 2.69 | 13.4
5 | C=C1[C@@H]([C@@]2(C)C=CC(=O)C(C)(C)[C@@H]2CC(=O)OC)CC[C@@]2(C)C(c3ccoc3)OC(=O)[C@H]3O[C@]132 (stereo not given in full) | – | > 100 | – | > 100 | – | > 100 | – | > 100 | – | > 100 | – | > 100 | – | > 100 | – | > 100 | – | > 100 | – | > 100
6 | Cc1ncc([N+](=O)[O-])n1CCNC(=O)Cn1c([N+](=O)[O-])cnc1C | – | > 100 | – | > 100 | – | > 100 | – | > 100 | – | > 100 | – | > 100 | – | > 100 | – | > 100 | – | > 100 | – | > 100
7 | COc1cc(Cl)cc(-c2nn(-c3cccc(NC(=O)Nc4ccc(Cl)c(C(F)(F)F)c4)c3)cc2-c2ccncc2)c1 | 0.77 | 4.08 | 1.59 | 4.27 | 1.66 | 10.9 | 0.451 | 2.66 | 1.71 | 8.59 | 2.13 | 7.15 | 2.93 | 17.6 | 0.613 | 3.65 | 2.5 | 14.7 | 0.739 | 5.93
